Common to all, as to assay type: binding
The target of experiment [1] is T1, S100A7 (Homo sapiens, UniProt P31151).
T1 sequence (P31151 1-101): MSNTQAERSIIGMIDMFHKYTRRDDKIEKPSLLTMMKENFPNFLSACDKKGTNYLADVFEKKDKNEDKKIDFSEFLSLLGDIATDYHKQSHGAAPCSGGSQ
The experiment in a line: direct fluorescence polarization (FP), S100A7. To be noted: S100A7, 50 nM labeled foldamer, 20 mM HEPES pH 7.5, 150 mM NaCl, 1 mM CaCl2, 0.5 mM TCEP, 0.01% Tween20, quadratic fit, mean ± SEM, three technical repeats, threshold 1 mM. The procedure: (§1) HTP (and also low-throughput) measurements generally need to be validated by an orthogonal approach to eliminate experimental artifacts. […] This way, we chose WL, IF, WW, YF, IL, VL, TW, RF, RR, TI, TM, and after resynthesizing with a fluorescent label at the C-terminus (Figs. S15–S26, Table S1), the S100ome was tested against the labeled foldamers by direct fluorescence polarization (FP) (Fig. 3A). In this assay, the association of the fluorescently labeled foldamer and the S100 protein of interest is monitored, through the change in polarization of the emitted light by the fluorophore upon the binding event. In direct FP, the presence of the fluorophore might change the binding affinity of some foldamers. […] Nevertheless, we assumed that the fluorophore would affect all foldamers that target the same binding site to the same degree, because the foldamer scaffold is rigid. Defining the threshold of detection at the dissociation constant of 1 mM, we identified 87 interactions between the selected foldamer fragments and the S100ome out of 220 possible interactions (Table 1, Fig. S4-14).
(§2) Briefly, S100 proteins were cloned into a modified pET15b vector with a TEV protease cleavable N-terminal His6-tag and expressed in Escherichia coli BL21 (DE3) cells, followed by Ni^2+-affinity chromatography. For HU assay, S100 proteins were further purified by either hydrophobic interaction chromatography or ion exchange chromatography without the cleavage of the N-terminal His6-tag applying standard conditions. For direct FP measurements, the N-terminal His6-tag was cleaved, and the S100 proteins were purified by hydrophobic interaction chromatography, ion exchange chromatography or size exclusion chromatography. The quality of the recombinant proteins was checked by SDS-PAGE analysis in all cases. The concentration of the recombinant S100 proteins was determined by UV spectrophotometry using the absorbance of Tyr and Trp residues.
(§3) In direct fluorescence polarization assays, S100 proteins were diluted in a buffer containing 50 nM labeled foldamer, 20 mM HEPES pH 7.5, 150 mM NaCl, 1 mM CaCl2, 0.5 mM TCEP and 0.01% Tween20. The dilution series (50 µl) were divided into three technical repeats and transferred (15 µl) to a 384-well microplate. In competitive fluorescence polarization assays, the buffer applied in direct measurements was supplemented with the S100 protein of interest to reach a saturation of 60–80%. This mixture was titrated with the competitor (i.e. the unlabeled peptide). Fluorescence polarization was measured in 8 different S100 concentrations (one of which contained no S100 protein) on a Synergy H4 plate reader using 485 ± 20 nm and 528 ± 20 nm band-pass filters for excitation and emission, respectively. The Kd values were obtained by fitting the data from the FP measurements with the python-based ProFit software using quadratic and competitive binding equation for direct and competitive FP, respectively. The detection threshold was based on two parameters. First, we rejected all fitted dissociation constants above 1 mM.
Background: Fluorescence polarisation rises when a labelled molecule tumbles more slowly, as on binding a larger partner.

In experiment [2] the target is T2, S100A8 (Homo sapiens, UniProt P05109).
T2 sequence (P05109 1-93): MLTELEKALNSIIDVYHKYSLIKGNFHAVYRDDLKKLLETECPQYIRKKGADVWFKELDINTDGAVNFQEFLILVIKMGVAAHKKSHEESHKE
The experiment is described as follows: direct fluorescence polarization (FP), S100A8. To be noted: S100A8, 50 nM labeled foldamer, 20 mM HEPES pH 7.5, 150 mM NaCl, 1 mM CaCl2, 0.5 mM TCEP, 0.01% Tween20, quadratic fit, mean ± SEM, three technical repeats, threshold 1 mM. The procedure:
as §1, §2, §3

Experiment [3] concerns the target T3, S100A12 (Homo sapiens, UniProt P80511).
T3 sequence (P80511 1-92): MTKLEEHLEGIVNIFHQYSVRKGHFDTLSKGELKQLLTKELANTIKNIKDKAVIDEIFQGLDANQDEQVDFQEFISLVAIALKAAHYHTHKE
The experiment in a line: direct fluorescence polarization (FP), S100A12. The following applies: S100A12, 50 nM labeled foldamer, 20 mM HEPES pH 7.5, 150 mM NaCl, 1 mM CaCl2, 0.5 mM TCEP, 0.01% Tween20, quadratic fit, mean ± SEM, three technical repeats, threshold 1 mM. The procedure: as §1, §2, §3

The target of experiment [4] is T4, S100A13 (Homo sapiens, UniProt Q99584).
T4 sequence (Q99584 1-98): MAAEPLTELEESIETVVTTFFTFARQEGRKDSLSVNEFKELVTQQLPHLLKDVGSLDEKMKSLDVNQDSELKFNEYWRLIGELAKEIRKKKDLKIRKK
The experiment is described as follows: direct fluorescence polarization (FP), S100A13. The following applies: for Kd: S100A13, 50 nM labeled foldamer, 20 mM HEPES pH 7.5, 150 mM NaCl, 1 mM CaCl2, 0.5 mM TCEP, 0.01% Tween20, quadratic fit, mean ± SEM, three technical repeats, threshold 1 mM. On the procedure:
as §1, §2, §3

For experiment [5], the target named is T5, S100A16 (Homo sapiens, UniProt Q96FQ6).
T5 sequence (Q96FQ6 1-103): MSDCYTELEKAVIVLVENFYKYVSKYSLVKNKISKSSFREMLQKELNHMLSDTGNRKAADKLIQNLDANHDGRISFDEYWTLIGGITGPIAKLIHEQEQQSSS
The experiment in a line: direct fluorescence polarization (FP), S100A16. The following applies: S100A16, 50 nM labeled foldamer, 20 mM HEPES pH 7.5, 150 mM NaCl, 1 mM CaCl2, 0.5 mM TCEP, 0.01% Tween20, quadratic fit, mean ± SEM, three technical repeats, threshold 1 mM. On the procedure:
as §1, §2, §3

Experiment [6] has as its target T6, S100G (Homo sapiens, UniProt P29377).
T6 sequence (P29377 2-79): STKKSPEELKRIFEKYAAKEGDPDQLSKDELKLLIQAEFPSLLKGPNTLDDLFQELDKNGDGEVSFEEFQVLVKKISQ
The experiment in a line: direct fluorescence polarization (FP), S100G. To be noted: 50 nM labeled foldamer, 20 mM HEPES pH 7.5, 150 mM NaCl, 1 mM CaCl2, 0.5 mM TCEP, 0.01% Tween20, quadratic fit, mean ± SEM, three technical repeats, threshold 1 mM. On the procedure: as §1, §2, §3

Experiment [7] deals with T7, S100Z (Homo sapiens, UniProt Q8WXG8).
T7 sequence (Q8WXG8 1-99): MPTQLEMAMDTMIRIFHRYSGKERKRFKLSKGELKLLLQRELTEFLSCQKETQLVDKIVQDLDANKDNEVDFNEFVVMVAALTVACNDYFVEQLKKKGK
The experiment is described as follows: direct fluorescence polarization (FP), S100Z. To be noted: 50 nM labeled foldamer, 20 mM HEPES pH 7.5, 150 mM NaCl, 1 mM CaCl2, 0.5 mM TCEP, 0.01% Tween20, quadratic fit, mean ± SEM, three technical repeats, threshold 1 mM.
Excerpt: HTP (and also low-throughput) measurements generally need to be validated by an orthogonal approach to eliminate experimental artifacts. […] In this assay, the association of the fluorescently labeled foldamer and the S100 protein of interest is monitored, through the change in polarization of the emitted light by the fluorophore upon the binding event. In direct FP, the presence of the fluorophore might change the binding affinity of some foldamers. […] Nevertheless, we assumed that the fluorophore would affect all foldamers that target the same binding site to the same degree, because the foldamer scaffold is rigid.
as §2, §3

Molecules are shown by their SMILES.

Take `NC(=O)[C@H](CCCCNC(=O)c1ccc2c(c1)C1(OC2=O)c2ccc(O)cc2Oc2cc(O)ccc21)NC(=O)CNC(=O)[C@H]1CCCC[C@@H]1NC(=O)C[C@H](Cc1c[nH]c2ccccc12)NC(=O)[C@H]1CCCC[C@@H]1NC(=O)[C@H]1CCCC[C@@H]1NC(=O)C[C@H](Cc1c[nH]c2ccccc12)NC(=O)[C@H]1CCCC[C@@H]1N` [fWW]: the Kd in experiment [1], in experiment [2], in experiment [3], in experiment [4], in experiment [5] and in experiment [6] was above 1000 µM each time. Also, the Kd (as a rule, the free concentration of one partner at which half of the binding sites on the other are occupied at equilibrium, for simple one-to-one binding) in experiment [7] was above 1000 µM.
For `NC(=O)[C@H](CCCCNC(=O)c1ccc2c(c1)C1(OC2=O)c2ccc(O)cc2Oc2cc(O)ccc21)NC(=O)CNC(=O)[C@H]1CCCC[C@@H]1NC(=O)C[C@H](Cc1ccccc1)NC(=O)[C@H]1CCCC[C@@H]1NC(=O)[C@H]1CCCC[C@@H]1NC(=O)C[C@H](Cc1ccc(O)cc1)NC(=O)[C@H]1CCCC[C@@H]1N` [fYF], the equilibrium dissociation constant (Kd) in experiment [1] is above 1000 µM; in experiment [2], 180 ± 42 µM; in experiment [3] it was above 1000 µM; in experiment [4], above 1000 µM; in experiment [5] it was above 1000 µM; in experiment [6] it was above 1000 µM. The Kd in experiment [7] is above 1000 µM. Further, the “increase of the polarization upon adding S100A13” value in experiment [4] (Fig. 3A right panel) was “only a minor linear increase of the polarization”.

(Values after publication PMC8991199, “Promiscuity mapping of the S100 protein family using a high-throughput holdup assay” (Scientific Reports, 2022).)
